Test results: US9981928B2, “Aryl sulfide derivatives and aryl sulfoxide derivatives as acaricides and insecticides” (BAYER CROPSCIENCE AKTIENGESELLSCHAFT, priority 2013, dated 2018)
Where two headings read alike, the source gives them in different places.

Assays:
[1] = test system: southern root-knot nematode (Meloidogyne incognita); assay: Meloidogyne incognita test (MELGIN); type: in vivo; settings: lettuce in sand; application rate 20 ppm; after 14 days
Protocol: Meloidogvne incognita test (MELGIN)
Solvent: 125.0 parts by weight of acetone
To produce a suitable preparation of active compound, 1 part by weight of active compound is mixed with the stated amount of solvent and the concentrate is diluted with water to the desired concentration.
Vessels are filled with sand, active compound solution, an egg/larvae suspension of the southern root-knot nematode (Meloidogyne incognita) and lettuce seeds. The lettuce seeds germinate and the plants develop. The galls develop on the roots.
After 14 days, the nematicidal efficacy in % is determined by the formation of galls. 100% means that no galls were found; 0% means that the number of galls on the treated plants corresponds to the untreated control.

[2] = test system: greenhouse red spider mite (Tetranychus urticae); assay: Tetranychus urticae spray test, OP-resistant (TETRUR), bean leaf disks; type: in vivo; settings: bean leaf disks, after 6 days; for pest or weed control at 500 g/ha: Tetranychus urticae, foliar, 144 h, read-out: efficacy in %
Outline: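 Efficacy (% mites killed) read 6 days after spraying infested Phaseolus vulgaris leaf disks. Compound preparation: acetone and dimethylformamide solvent, made up in water with 1000 ppm alkylaryl polyglycol ether emulsifier; OP-resistant mite strain, all life stages.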

[3] = log P determination by HPLC on reversed-phase columns (C 18), analogously to OECD Guideline 117; type: physicochemical; settings: for logP (HCOOH): LC-MS in the acidic range, pH 2.7, 0.1% aqueous formic acid / acetonitrile; for logP (HCOOH) / logP (neutral): HPLC reversed-phase C 18; for logP (neutral): LC-MS in the neutral range, pH 7.8, 0.001 molar aqueous ammonium hydrogencarbonate / acetonitrile; for chromatographic logP: reversed-phase C18 HPLC column
Outline: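 Reversed-phase C18 HPLC per OECD 117 with LC-MS detection and a linear 10→95% acetonitrile gradient. Acidic log P run at pH 2.7 with 0.1% formic acid in both eluents. Neutral log P run at pH 7.8 with 0.001 M aqueous ammonium hydrogencarbonate.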

[4] = test system: cattle ticks (Boophilus microplus); assay: Boophilus microplus injection test (BOOPMI inj); type: in vivo; settings: injection into the abdomen; application rate 20 μg/animal; assessed after 7 days
Protocol: Boophilus microplus—Injection Test (BOOPMI inj)
Solvent: dimethyl sulfoxide
To produce a suitable preparation of active compound, 10 mg of active compound are mixed with 0.5 ml of solvent and the concentrate is diluted with solvent to the desired concentration.
1 μl of the active compound solution is injected into the abdomen of 5 engorged adult female cattle ticks (Boophilus microplus). The animals are transferred into dishes and kept in a climate-controlled room.
Efficacy is assessed after 7 days by laying of fertile eggs. Eggs which are not visibly fertile are stored in a climate-controlled cabinet until the larvae hatch after about 42 days. An efficacy of 100% means that none of the ticks has laid any fertile eggs; 0% means that all the eggs are fertile.

[5] = acidic range, pH 2.7, 0.1% aqueous formic acid and acetonitrile, read-out: log P[a] / log P(HCOOH)
[6] = neutral range, pH 7.8, 0.001 molar aqueous ammonium hydrogencarbonate and acetonitrile, read-out: log P[b] / log P(neutral)

Row | Compound | nematicidal efficacy in % (formation of galls) [1] [%] | efficacy in % ([2]; application rate 500 g/ha) [%] | logP (HCOOH) [3] | logP (neutral) [3] | pest or weed control at 500 g/ha ([2]; application rate 500 g/ha) [%] | chromatographic logP [3, 5] | chromatographic logP [3, 6] | efficacy (laying of fertile eggs) [4] [%] | efficacy in % ([2]; application rate 100 g/ha) [%]
1 | Cn1c(=O)n(C2CC2)c(=O)n1-c1cc([S+]([O-])CC(F)(F)F)c(Cl)cc1F (centres unmarked) [Example 38] | 100 | 100 | 2.18 | 2.16 | – | – | – | – | –
2 | Cc1cc(F)c(-n2c(=O)n(C3CC3)c(=S)n2C)cc1SCC(F)(F)F [Example 181, 4-Cyclopropyl-2-{2-fluoro-4-methyl-5-[(2,2,2-trifluoroethyl)sulfanyl]phenyl}-1-methyl-5-thioxo-1,2,4-triazolidin-3-one] | 90 | – | – | – | 90 | 3.44 | 3.39 | – | –
3 | Cc1cc(F)c(N2C(=O)C(C)(C)C(=O)N2C)cc1[S+]([O-])CC(F)(F)F (centres unmarked) [Example 177, 1-{2-Fluoro-4-methyl-5-[(2,2,2-trifluoroethyl)sulfinyl]phenyl}-2,4,4-trimethylpyrazolidine-3,5-dione] | 90 | – | – | – | 90 | 1.89 | 1.85 | – | –
4 | CCn1c(=O)n(C2CC2)c(=O)n1-c1cc(SCC(F)(F)F)c(C)cc1F [Example 127] | 90 | 100 | 3.19 | 3.17 | – | – | – | – | –
5 | Cc1cc(F)c(N2CCOC2=O)cc1SCC(F)(F)F [Example 104, 3-[2-Fluoro-4-methyl-5-(2,2,2-trifluoroethylsulfanyl)phenyl]oxazolidin-2-one] | – | – | – | – | 100 | 2.66 | – | 100 | –
6 | Cc1cc(F)c(N2CC(=O)N(C)C2=O)cc1[S+]([O-])CC(F)(F)F (centres unmarked) [Example 208] | 90 | 100 | 1.68 | – | – | – | – | 100 | –
7 | Cc1cc(C)c([S+]([O-])CC(F)(F)F)cc1-n1c(=O)n(C)c(=O)n1C (centres unmarked) [Example 33] | 90 | 90 | 1.75 | 1.70 | – | – | – | – | –
8 | COc1ccc(-n2c(=O)n(C3CC3)c(=O)n2C)cc1SCC(F)(F)F [Example 42] | 90 | 100 | 2.51 | 2.46 | – | – | – | – | –
9 | Cc1cc(F)c(-n2c(=O)n(C3CC3)c(=O)n2C)cc1[S+]([O-])CC(F)(F)F (centres unmarked) [Example 34] | 90 | 100 | 1.91 | 1.88 | – | – | – | 100 | –
10 | Cn1c(=O)n(C)n(-c2cc(SCC(F)(F)F)c(Cl)cc2F)c1=O [Example 30] | 90 | 100 | 2.71 | 2.67 | – | – | – | – | –
11 | CCn1c(=O)n(C)n(-c2cc([S+]([O-])CC(F)(F)F)c(C)cc2F)c1=O (centres unmarked) [Example 74] | 90 | – | 1.93 | 1.91 | – | – | – | – | 90
